Results published in patent US20240285551A1, “A SMALL MOLECULE TNF-a INHIBITOR AND PREPARATION METHOD AND USE THEREOF” (FUDAN UNIVERSITY, priority 2021, published 2024).

Experiments:
IL-6 [1] = experiment: colon tissue IL-6 mRNA by qPCR, DSS acute UC mice; type: in vivo; details: 10 mg/kg
Procedure: (§1) Except for the normal group, all other groups of mice were allowed to freely drink a 3% DSS solution which was freshly prepared and replaced the next day (wherein the 3% DSS solution was prepared by weighing 3 g of a DSS powder (from MP Biomedicals, USA with a molecular weight of 36,000 to 50,000) and fully dissolving it in 100 mL of the drinking water for the mice); whereas the normal group was given blank drinking water; the control group mice drank water normally for 7 days, while the DSS group mice drank the 3% DSS solution freely for 7 days and were administrated for 6 days from the second day DSS was given. The mice were administered by gavage once a day with a volume of 10 mL/kg, wherein the normal control group and DSS group were gavaged with a solvent of 0.5% CMC-Na (wherein a 0.5% CMC-Na solution is at a concentration of 0.5 g/100 mL, the same below), while the other groups were separately gavaged with drugs dissolved in 0.5% CMC-Na.
(§2) After dissection, a segment of the colon was taken from the same part of each mouse, total RNAs were extracted from tissues, and mRNA expressions of such inflammatory factors as TNF-α, IL-1β, IL-6, and IL-23 in colon tissues of the mice were detected through qPCR.

IL-1β [2] = experiment: serum IL-1β protein by ELISA, DSS acute UC mice; type: in vivo; details: 10 mg/kg
Procedure: as §1

IL-23 [3] = experiment: serum IL-23 protein by ELISA, DSS acute UC mice; type: in vivo; details: 10 mg/kg
Procedure: as §1
(§3) To investigate the effects of compounds (R)-STU104, (S)-STU104, and (±)-STU104 on the secretion of such inflammatory factors as TNF-α, IL-1β, IL-6, and IL-23 by mice of the DSS induced acute ulcerative colitis model in C57 mice, we isolated serum after blood acquisition and detected the contents of such inflammatory factors as TNF-α, IL-1β, IL-6, and IL-23 in the serum of mice using ELISA.

IL-23 [4] = experiment: colon tissue IL-23 mRNA by qPCR, DSS acute UC mice; type: in vivo; details: 10 mg/kg
Procedure: as §1, §2

[5] = system: DSS induced acute ulcerative colitis model in C57 mice; experiment: DSS induced acute ulcerative colitis in C57 mice (body weight, DAI, colon length, H&E pathology); type: in vivo; details: 10 mg/kg
Procedure: as §1
The normal control group mice were vivacious with glossy fur, stable weight gain, and normal stools appearing elliptical or spindle shaped.
In order to further evaluate the disease development for each group of acute UC mice, we performed DAI scoring on the loose and bloody stools etc. for each mouse (see panel B1 in FIG. 3). […] As the experiment progressed, the disease became gradually worsened, with some animals experiencing severe bloody stools and significant emaciation.
(§4) After dissection, the colon of each mouse was taken and the length of the colon was measured separately.

TNF-α [6] = experiment: colon tissue TNF-α mRNA by qPCR, DSS acute UC mice; type: in vivo; details: 10 mg/kg
Procedure: as §1, §2

TNF-α [7] = experiment: serum TNF-α protein by ELISA, DSS acute UC mice; type: in vivo; details: 10 mg/kg
Procedure: as §1, §3

IL-6 [8] = experiment: serum IL-6 protein by ELISA, DSS acute UC mice; type: in vivo; details: 10 mg/kg
Procedure: as §1, §3

IL-1β [9] = experiment: colon tissue IL-1β mRNA by qPCR, DSS acute UC mice; type: in vivo; details: 10 mg/kg
Procedure: as §1, §2

IL-23 [10] = experiment: colon tissue IL-23 mRNA by qPCR, IL-10 knockout chronic UC mice; type: in vivo
Procedure: (§5) Ten C57 mice (aged 10-12 weeks, around 20 g) with an identified genotype of Wildtype were taken as the normal control group. […] The mice were administered by gavage once a day with a volume of 10 mL/kg, wherein the normal control group and DSS group were gavaged with a solvent of 0.5% CMC-Na while the other groups were separately gavaged with drugs dissolved in 0.5% CMC-Na.
as §2

[11] = system: chronic ulcerative colitis model in IL-10 whole gene knockout mice; experiment: chronic ulcerative colitis in IL-10 whole gene knockout mice (survival, body weight, colon length, H&E pathology); type: in vivo; details: for total mortality rate: gavage once a day
Procedure: as §5, §4

IL-6 [12] = experiment: colon tissue IL-6 mRNA by qPCR, IL-10 knockout chronic UC mice; type: in vivo
Procedure: as §5, §2

TNF-α [13] = experiment: serum TNF-α protein by ELISA, IL-10 knockout chronic UC mice; type: in vivo
Procedure: as §5
(§6) To investigate the effects of (R)-STU104 on the secretion of such inflammatory factors as TNF-α, IL-1β, IL-6, and IL-23 by spontaneous IBD mice due to IL-10 knockout, we isolated serum after blood acquisition and detected the contents of such inflammatory factors as TNF-α, IL-1β, IL-6, and IL-23 in the serum of mice using ELISA.

TAK1 = experiment: western blotting of TAK1 phosphorylation (upstream kinase of MKK3); type: cell-based
Excerpt: (§7) To further clarify the inhibitory mechanism of (R)-STU104 on TNF-α release, we detected the effects of (R)-STU104 on phosphorylation levels of proteins related to the p38 signaling pathway (see FIG. 2). The p38 inhibitor (SB203580) was used as a positive control, and western blotting was used to detect protein expression levels.

IL-1β [14] = experiment: serum IL-1β protein by ELISA, IL-10 knockout chronic UC mice; type: in vivo
Procedure: as §5, §6

[15] = system: Mnk1, MK2, and elF4E in the p38 signaling pathway; experiment: western blotting of phosphorylation of p38 signaling pathway proteins in LPS induced RAW264.7 cells; type: cell-based; details: RAW264.7, 3.125, 6.25 and 12.5 μM, LPS 500 μg/L
Excerpt: as §7

IL-23 [16] = experiment: serum IL-23 protein by ELISA, IL-10 knockout chronic UC mice; type: in vivo
Procedure: as §5, §6

IL-1β [17] = experiment: colon tissue IL-1β mRNA by qPCR, IL-10 knockout chronic UC mice; type: in vivo
Procedure: as §5, §2

IL-6 [18] = experiment: serum IL-6 protein by ELISA, IL-10 knockout chronic UC mice; type: in vivo
Procedure: as §5, §6

TNF-α [19] = experiment: release of the inflammatory factor TNF-α by LPS induced macrophages (RAW264.7), RT-PCR; type: cell-based; details: Mus musculus, RAW264.7, LPS 1 μg/ml, 24 hours, read-out: IC50 with respect to the release of the inflammatory factor TNF-α
Procedure: LPS (1 μg/ml) and different concentrations of (±)-STU104 or (R)-STU104 (0.1 to 50 μM) were added respectively after the cells grew to a fused state, and incubated together at 37° C. under 5% CO2 for 24 hours. A blank control group was established, and RT-PCR was employed to detect the inhibition states of TNF-α in cells by these compounds.

TNF-α [20] = experiment: colon tissue TNF-α mRNA by qPCR, IL-10 knockout chronic UC mice; type: in vivo
Procedure: as §5, §2

## COc1ccc([C@@H]2CC(=O)c3cc(OC)cc(OC)c32)cc1 [(S)-STU104]
IL-6 [1]
  inhibition ratio of IL-6 mRNA in colon tissues: 8.1%
IL-1β [2]
  inhibition ratio of IL-1β protein content in serum: 18.1%
IL-23 [3]
  inhibition ratio of IL-23 protein content in serum: 18.9%
IL-23 [4]
  inhibition ratio of IL-23 mRNA in colon tissues: 10.6%
[5]; compared with mesalazine 50 mg/kg
  improvement of acute UC symptoms: significantly lower than that in the mesalazine group
[5]; gavage once a day
  colon length recovery rate (inhibition of colon shortening): 14.5%
  recovery rate of colon pathological sections (H&E): 13.9%
TNF-α [6]
  inhibition ratio of TNF-α mRNA in colon tissues: 22.0%
TNF-α [7]
  inhibition ratio of TNF-α protein content in serum: 10.2%
IL-6 [8]
  inhibition ratio of IL-6 protein content in serum: 32.6%
IL-1β [9]
  inhibition ratio of IL-1β mRNA in colon tissues: 27.7%

## COc1ccc([C@H]2CC(=O)c3cc(OC)cc(OC)c32)cc1 [(R)-STU104, 4,6-dimethoxy-3R-(4-methoxyphenyl)-2,3-dihydro-1H-indanone]
IL-23 [10]; high dose (10 mg/kg)
  inhibition ratio of IL-23 mRNA in colon tissues: 58.2%
IL-23 [10]; low dose (1 mg/kg)
  inhibition ratio of IL-23 mRNA in colon tissues: 31.0%
IL-23 [10]; medium dose (3 mg/kg)
  inhibition ratio of IL-23 mRNA in colon tissues: 51.7%
IL-6 [1]
  inhibition ratio of IL-6 mRNA in colon tissues: 65.0%
[11]; high-dose group (10 mg/kg)
  efficiency of weight gain (body weight recovery): 19.4%
  inhibition ratio of colon shortening: 41.2%
  recovery rate of colon pathological sections (H&E): 56.7%
  total mortality rate: no deaths occurred
[11]; low-dose group (1 mg/kg)
  efficiency of weight gain (body weight recovery): 13.6%
  inhibition ratio of colon shortening: 17.7%
  recovery rate of colon pathological sections (H&E): 33.0%
  total mortality rate: 20%
[11]; medium-dose group (3 mg/kg)
  efficiency of weight gain (body weight recovery): 14.8%
  inhibition ratio of colon shortening: 29.4%
  recovery rate of colon pathological sections (H&E): 50.5%
  total mortality rate: no deaths occurred
IL-6 [12]; high dose (10 mg/kg)
  inhibition ratio of IL-6 mRNA in colon tissues: 48.6%
IL-6 [12]; low dose (1 mg/kg)
  inhibition ratio of IL-6 mRNA in colon tissues: 26.3%
IL-6 [12]; medium dose (3 mg/kg)
  inhibition ratio of IL-6 mRNA in colon tissues: 37.1%
TNF-α [13]; high dose (10 mg/kg)
  inhibition ratio of TNF-α protein content in serum: 61.9%
TNF-α [13]; low dose (1 mg/kg)
  inhibition ratio of TNF-α protein content in serum: 40.2%
TNF-α [13]; medium dose (3 mg/kg)
  inhibition ratio of TNF-α protein content in serum: 60.3%
IL-1β [2]
  inhibition ratio of IL-1β protein content in serum: 70.1%
IL-23 [3]
  inhibition ratio of IL-23 protein content in serum: 56.7%
IL-23 [4]
  inhibition ratio of IL-23 mRNA in colon tissues: 84.8%
TAK1
  phosphorylation of TAK1: no inhibition
[5]; gavage once a day
  colon length recovery rate (inhibition of colon shortening): 34.6%
  recovery rate of colon pathological sections (H&E): 65.6%
[5]; gavage once a day, day 7
  DAI score inhibition ratio: 29.3%
  body weight recovery rate: 22.4%
IL-1β [14]; high dose (10 mg/kg)
  inhibition ratio of IL-1β protein content in serum: 51.8%
IL-1β [14]; low dose (1 mg/kg)
  inhibition ratio of IL-1β protein content in serum: 40.1%
IL-1β [14]; medium dose (3 mg/kg)
  inhibition ratio of IL-1β protein content in serum: 50.0%
[15]
  phosphorylation of key proteins Mnk1, MK2, and elF4E in the p38 signaling pathway: inhibiting, in a concentration dependent manner
IL-23 [16]; high dose (10 mg/kg)
  inhibition ratio of IL-23 protein content in serum: 64.4%
IL-23 [16]; low dose (1 mg/kg)
  inhibition ratio of IL-23 protein content in serum: 39.6%
IL-23 [16]; medium dose (3 mg/kg)
  inhibition ratio of IL-23 protein content in serum: 58.2%
TNF-α [6]
  inhibition ratio of TNF-α mRNA in colon tissues: 64.8%
TNF-α [7]
  inhibition ratio of TNF-α protein content in serum: 55.4%
IL-6 [8]
  inhibition ratio of IL-6 protein content in serum: 71.5%
IL-1β [17]; high dose (10 mg/kg)
  inhibition ratio of IL-1β mRNA in colon tissues: 43.8%
IL-1β [17]; low dose (1 mg/kg)
  inhibition ratio of IL-1β mRNA in colon tissues: 22.8%
IL-1β [17]; medium dose (3 mg/kg)
  inhibition ratio of IL-1β mRNA in colon tissues: 36.1%
IL-6 [18]; high dose (10 mg/kg)
  inhibition ratio of IL-6 protein content in serum: 57.6%
IL-6 [18]; low dose (1 mg/kg)
  inhibition ratio of IL-6 protein content in serum: 34.4%
IL-6 [18]; medium dose (3 mg/kg)
  inhibition ratio of IL-6 protein content in serum: 44.5%
TNF-α [19]
  IC50: 0.58 µM
TNF-α [20]; high dose (10 mg/kg)
  inhibition ratio of TNF-α mRNA in colon tissues: 68.5%
TNF-α [20]; low dose (1 mg/kg)
  inhibition ratio of TNF-α mRNA in colon tissues: 24.7%
TNF-α [20]; medium dose (3 mg/kg)
  inhibition ratio of TNF-α mRNA in colon tissues: 69.5%
IL-1β [9]
  inhibition ratio of IL-1β mRNA in colon tissues: 68.3%
